Laboratory results taken from patent US7384478B2, “Apparatus and process for preparing crystalline particles” (Glaxo Group Limited, priority 2002, dated 2008).
Marks after values point to notes of the source that are not given here. Each block holds one compound with its values, some of them ahead of it.

Assay: Particle sizing with the Malvern laser diffraction particle sizer
Type: physicochemical
Details: for Malvern size data D10 / Malvern size data D50 / Malvern size data D90: crystalline fluticasone propionate particles, average of 2 results except values marked **
Experimental: The drug substance (fluticasone propionate, FP) (1 wt) was dissolved in acetone (15-20 vols, according to experiment) by heating to 56° C. and then allowed to cool to between 25 and 35° C. A first peristaltic pump was connected to the said FP/acetone solution and a second peristaltic pump was connected to a water reservoir wherein the water was in the temperature range of about 3-30° C. Prior to starting the pumps the mixing chamber was filled with a solution of acetone and water (the ratio of each being the same as the relative pumping rates from the two reservoirs). By doing this, the relative concentrations of the water to acetone remained constant throughout the crystallisation. The temperature of the mixing chamber was maintained in the range about −10 to +30° C. by passing tempered heat transfer fluid through the vessel jacket. The FP/acetone solution inlet and water inlet were arranged coaxially or in parallel (as shown in FIGS. 1a/1b/2a/2b) and the tip of the ultrasound probe was positioned so that it is just above the inlets. Stirring with the aid of a non-grinding magnetic stirrer bar or overhead stirrer was initiated as is the ultrasound at intensity 2-4 W/cm^2 (with respect to the tip face area of the probe). A comparison experiment with the ultrasound probe in place but zero power was performed. Re-crystallisations were carried out from various mixtures of acetone and water (by altering the flow rates of each) as dictated by the parameters set out in the experimental design. Finally the pumps were started simultaneously. A suspension of the crystals in the re-crystallisation mixture was allowed to exit via the overflow directly on to a filter bed. The slurry is isolated and washed with water and dried in vacuo between about 20 to 50° C.
Comparison experiments were performed using the apparatus with diametrically opposite input feeds described in WO 00/38811 in which save for the input feed geometry and the specific parameters given in the table below, and the vessel dimensions given below, other parameters Were similar to those used for the experiments using the present invention.
Samples were sized using the Malvern laser diffraction particle sizer and the results analysed using multi-dimensional model fitting software (such as Design Expert 5).

- Malvern size data D10 (listed as 3): 0.47 micron
- Malvern size data D50 (listed as 3): 1.78 micron
- Malvern size data D90 (listed as 3): 4.39 micron
Structure (SMILES): CCC(=O)O[C@]1(C(=O)SCF)[C@H](C)C[C@H]2[C@@H]3C[C@H](F)C4=CC(=O)C=C[C@]4(C)[C@@]3(F)[C@@H](O)C[C@@]21C [Run 3, fluticasone propionate]

- Malvern size data D10 (listed as 4): 0.43** micron
- Malvern size data D50 (listed as 4): 1.51** micron
- Malvern size data D90 (listed as 4): 3.75** micron
- particle size distribution, comparison in words (versus micronised material or prior art configurations C and D): very good match
Structure (SMILES): CCC(=O)O[C@]1(C(=O)SCF)[C@H](C)C[C@H]2[C@@H]3C[C@H](F)C4=CC(=O)C=C[C@]4(C)[C@@]3(F)[C@@H](O)C[C@@]21C [Run 4, fluticasone propionate]

- Malvern size data D10: 0.60 micron
- Malvern size data D50: 1.62 micron
- Malvern size data D90: 3.20 micron
Structure (SMILES): CCC(=O)O[C@]1(C(=O)SCF)[C@H](C)C[C@H]2[C@@H]3C[C@H](F)C4=CC(=O)C=C[C@]4(C)[C@@]3(F)[C@@H](O)C[C@@]21C [standard micronised FP, fluticasone propionate]

- Malvern size data D10 (listed as 2): 0.52 micron
- Malvern size data D50 (listed as 2): 2.08 micron
- Malvern size data D90 (listed as 2): 5.10 micron
Structure (SMILES): CCC(=O)O[C@]1(C(=O)SCF)[C@H](C)C[C@H]2[C@@H]3C[C@H](F)C4=CC(=O)C=C[C@]4(C)[C@@]3(F)[C@@H](O)C[C@@]21C [Run 2, fluticasone propionate]

- Malvern size data D10 (listed as 7): 1.15 micron
- Malvern size data D50 (listed as 7): 4.19 micron
- Malvern size data D90 (listed as 7): 10.00 micron
Structure (SMILES): CCC(=O)O[C@]1(C(=O)SCF)[C@H](C)C[C@H]2[C@@H]3C[C@H](F)C4=CC(=O)C=C[C@]4(C)[C@@]3(F)[C@@H](O)C[C@@]21C [Run 7, fluticasone propionate]

- Malvern size data D10 (listed as 8): 1.88 micron
- Malvern size data D50 (listed as 8): 5.13 micron
- Malvern size data D90 (listed as 8): 11.86 micron
Structure (SMILES): CCC(=O)O[C@]1(C(=O)SCF)[C@H](C)C[C@H]2[C@@H]3C[C@H](F)C4=CC(=O)C=C[C@]4(C)[C@@]3(F)[C@@H](O)C[C@@]21C [Run 8, fluticasone propionate]

- Malvern size data D10 (listed as 1): 0.60 micron
- Malvern size data D50 (listed as 1): 2.25 micron
- Malvern size data D90 (listed as 1): 6.29 micron
Structure (SMILES): CCC(=O)O[C@]1(C(=O)SCF)[C@H](C)C[C@H]2[C@@H]3C[C@H](F)C4=CC(=O)C=C[C@]4(C)[C@@]3(F)[C@@H](O)C[C@@]21C [Run 1, fluticasone propionate]

- Malvern size data D10 (listed as 5): 0.86 micron
- Malvern size data D50 (listed as 5): 2.98 micron
- Malvern size data D90 (listed as 5): 6.92 micron
Structure (SMILES): CCC(=O)O[C@]1(C(=O)SCF)[C@H](C)C[C@H]2[C@@H]3C[C@H](F)C4=CC(=O)C=C[C@]4(C)[C@@]3(F)[C@@H](O)C[C@@]21C [Run 5, fluticasone propionate]

- Malvern size data D10 (listed as 6): 0.53 micron
- Malvern size data D50 (listed as 6): 2.06 micron
- Malvern size data D90 (listed as 6): 4.93 micron
Structure (SMILES): CCC(=O)O[C@]1(C(=O)SCF)[C@H](C)C[C@H]2[C@@H]3C[C@H](F)C4=CC(=O)C=C[C@]4(C)[C@@]3(F)[C@@H](O)C[C@@]21C [Run 6, fluticasone propionate]
